pIC50: −log10 of the molar value.
Biological target: T1, Zcchc11 enzyme (Homo sapiens, UniProt Q5TAX3)
T1 construct: made in house; host or cells: HEK293 cells (Zcchc11); E. coli Rosetta II (LIN28A)
T1 sequence (Q5TAX3 212-1420): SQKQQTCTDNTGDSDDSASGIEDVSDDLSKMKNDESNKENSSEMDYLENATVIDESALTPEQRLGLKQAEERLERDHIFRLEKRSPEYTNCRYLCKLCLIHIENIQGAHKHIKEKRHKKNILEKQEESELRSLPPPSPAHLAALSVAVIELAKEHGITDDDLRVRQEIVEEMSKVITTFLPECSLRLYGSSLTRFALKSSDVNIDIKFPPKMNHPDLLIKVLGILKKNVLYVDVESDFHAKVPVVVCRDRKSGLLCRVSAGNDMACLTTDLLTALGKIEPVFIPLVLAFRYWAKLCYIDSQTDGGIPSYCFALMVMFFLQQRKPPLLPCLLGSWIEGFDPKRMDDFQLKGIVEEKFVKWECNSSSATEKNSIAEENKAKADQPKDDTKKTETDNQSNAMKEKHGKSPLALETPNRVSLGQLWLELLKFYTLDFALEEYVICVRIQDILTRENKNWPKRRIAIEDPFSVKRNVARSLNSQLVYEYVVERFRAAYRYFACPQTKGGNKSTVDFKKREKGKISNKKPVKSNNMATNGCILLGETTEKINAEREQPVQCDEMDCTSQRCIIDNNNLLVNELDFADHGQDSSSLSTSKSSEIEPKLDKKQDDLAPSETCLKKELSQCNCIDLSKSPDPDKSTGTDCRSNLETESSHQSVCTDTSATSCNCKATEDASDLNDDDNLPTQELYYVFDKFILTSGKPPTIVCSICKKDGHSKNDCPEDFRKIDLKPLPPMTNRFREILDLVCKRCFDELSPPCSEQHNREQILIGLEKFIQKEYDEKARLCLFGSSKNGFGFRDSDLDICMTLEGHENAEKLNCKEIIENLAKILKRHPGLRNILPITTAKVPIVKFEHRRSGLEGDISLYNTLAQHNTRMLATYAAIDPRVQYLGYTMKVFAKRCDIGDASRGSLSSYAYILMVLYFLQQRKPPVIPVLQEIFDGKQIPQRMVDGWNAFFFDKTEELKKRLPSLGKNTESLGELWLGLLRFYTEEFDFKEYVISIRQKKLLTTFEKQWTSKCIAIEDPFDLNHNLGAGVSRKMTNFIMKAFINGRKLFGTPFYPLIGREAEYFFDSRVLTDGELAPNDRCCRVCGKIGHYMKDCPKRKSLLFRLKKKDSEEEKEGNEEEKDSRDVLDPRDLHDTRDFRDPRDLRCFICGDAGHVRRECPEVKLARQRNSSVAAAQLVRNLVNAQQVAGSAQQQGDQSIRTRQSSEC
Assay: TUTase assay (Zcchc11 assay, Lin28a-dependent polyuridylation of pre-let-7)
Assay type: biochemical
Conditions: Lin28a-dependent Zcchc11 (Z11) TUTase assay; read-out: Potency Lin28a-dep Z11 IC50
Summary of the method: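 LIN28A (10 nM) in pH 7.3 HEPES/KCl/MgCl2/DTT buffer was mixed with serially diluted compound, then 0.2 nM truncated human Zcchc11 and 2 nM labeled pre-let-7 were added for 30 min at room temperature. UTP (5 uM) and quench probe (4 nM) then started the reaction. Linear early rates gave IC50 values.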

| SMILES | pIC50 |
| --- | --- |
| O=C(O)c1cn(-c2cnccn2)c2cc(N3C[C@@H](F)C[C@H]3COc3ncccc3Cl)c(Cl)cc2c1=O [Example 519, 6-chloro-7-((2S,4S)-2-(((3-chloropyridin-2-yl)oxy)methyl)-4-fluoropyrrolidin-1-yl)-4-oxo-1-(pyrazin-2-yl)-1,4-dihydroquinoline-3-carboxylic acid] | ≥ 6.00 |
| CN1CC2(C1)CN(c1ccc(-n3cc(C(=O)O)c(=O)c4cc(Cl)c(N5CCC[C@@H]5COc5ncccc5Cl)cc43)cn1)C2 [Example 520, (R)-6-chloro-7-(2-(((3-chloropyridin-2-yl)oxy)methyl)pyrrolidin-1-yl)-1-(6-(6-methyl-2,6-diazaspiro[3.3]heptan-2-yl)pyridin-3-yl)-4-oxo-1,4-dihydroquinoline-3-carboxylic acid] | ≥ 6.00 |
| CN(C)[C@H]1CCN(c2ccc(-n3cc(C(=O)O)c(=O)c4cc(Cl)c(N5CCC[C@@H]5COc5ncccc5Cl)cc43)cn2)C1 [Example 521, 6-chloro-7-((R)-2-(((3-chloropyridin-2-yl)oxy)methyl)pyrrolidin-1-yl)-1-(6-((S)-3-(dimethylamino)pyrrolidin-1-yl)pyridin-3-yl)-4-oxo-1,4-dihydroquinoline-3-carboxylic acid] | ≥ 6.00 |
| CN(C)[C@@H]1CCN(c2ccc(-n3cc(C(=O)O)c(=O)c4cc(Cl)c(N5CCC[C@@H]5COc5ncccc5Cl)cc43)cn2)C1 [Example 522, 6-chloro-7-((R)-2-(((3-chloropyridin-2-yl)oxy)methyl)pyrrolidin-1-yl)-1-(6-((R)-3-(dimethylamino)pyrrolidin-1-yl)pyridin-3-yl)-4-oxo-1,4-dihydroquinoline-3-carboxylic acid] | ≥ 6.00 |
| CN1CC2CN(c3ccc(-n4cc(C(=O)O)c(=O)c5cc(Cl)c(N6CCC[C@@H]6COc6ncccc6Cl)cc54)cn3)CC2C1 (stereo partly drawn) [Example 523, 6-chloro-7-((R)-2-(((3-chloropyridin-2-yl)oxy)methyl)pyrrolidin-1-yl)-1-(6-(5-methylhexahydro-pyrrolo[3,4-c]pyrrol-2(1H)-yl)pyridin-3-yl)-4-oxo-1,4-dihydroquinoline-3-carboxylic acid] | ≥ 6.00 |
| COc1cc2c(=O)c(C(=O)O)cn(-c3ccc(N4CC(N(C)C)C4)nc3)c2cc1N1CCC[C@@H]1COc1ncccc1Cl [Example 524, (R)-7-(2-(((3-chloropyridin-2-yl)oxy)methyl)pyrrolidin-1-yl)-1-(6-(3-(dimethylamino)azetidin-1-yl)pyridin-3-yl)-6-methoxy-4-oxo-1,4-dihydroquinoline-3-carboxylic acid] | 5.00 to 6.00 |
| O=C(O)c1cn(-c2ccc(N3CCCC3=O)nc2)c2nc(N3CCC[C@@H]3COc3ncccc3Cl)c(Cl)cc2c1=O [Example 525, (R)-6-chloro-7-(2-(((3-chloropyridin-2-yl)oxy)methyl)pyrrolidin-1-yl)-4-oxo-1-(6-(2-oxopyrrolidin-1-yl)pyridin-3-yl)-1,4-dihydro-1,8-naphthyridine-3-carboxylic acid] | ≥ 6.00 |
| CN(C)C1CN(c2ccc(-n3cc(C(=O)O)c(=O)c4cc(Cl)c(N5CCC[C@@H]5COc5ncccc5F)cc43)cn2)C1 [Example 526, (R)-6-chloro-1-(6-(3-(dimethylamino)azetidin-1-yl)pyridin-3-yl)-7-(2-(((3-fluoropyridin-2-yl)oxy)methyl)pyrrolidin-1-yl)-4-oxo-1,4-dihydroquinoline-3-carboxylic acid] | ≥ 6.00 |
| O=C(O)c1cn(-c2ccc(N3CC4CNCC4C3)nc2)c2cc(N3CCC[C@@H]3COc3ncccc3Cl)c(Cl)cc2c1=O (stereo partly drawn) [Example 527, 6-chloro-7-((R)-2-(((3-chloropyridin-2-yl)oxy)methyl)pyrrolidin-1-yl)-1-(6-(hexahydro-pyrrolo[3,4-c]pyrrol-2(1H)-yl)pyridin-3-yl)-4-oxo-1,4-dihydroquinoline-3-carboxylic acid acid] | ≥ 6.00 |
| Cc1cc2c(=O)c(C(=O)O)cn(-c3ccc(N4CC(N(C)C)C4)nc3)c2cc1N1CCC[C@@H]1COc1ncccc1F [Example 528, (R)-1-(6-(3-(dimethylamino)azetidin-1-yl)pyridin-3-yl)-7-(2-(((3-fluoropyridin-2-yl)oxy)methyl)pyrrolidin-1-yl)-6-methyl-4-oxo-1,4-dihydroquinoline-3-carboxylic acid] | ≥ 6.00 |
| O=C(O)c1cn(-c2cnc3cc[nH]c3n2)c2cc(N3CCC[C@@H]3COc3ncccc3Cl)c(Cl)cc2c1=O [Example 530, (R)-6-chloro-7-(2-(((3-chloropyridin-2-yl)oxy)methyl)pyrrolidin-1-yl)-4-oxo-1-(5H-pyrrolo[2,3-b]pyrazin-3-yl)-1,4-dihydroquinoline-3-carboxylic acid] | ≥ 6.00 |
| O=C(O)c1cn(-c2ccc(N3CCC3=O)nc2)c2nc(N3CCC[C@@H]3COc3ncccc3Cl)c(Cl)cc2c1=O [Example 531, (R)-6-chloro-7-(2-(((3-chloropyridin-2-yl)oxy)methyl)pyrrolidin-1-yl)-4-oxo-1-(6-(2-oxoazetidin-1-yl)pyridin-3-yl)-1,4-dihydro-1,8-naphthyridine-3-carboxylic acid] | ≥ 6.00 |
| CN(C)C1CN(c2ccc(-n3cc(C(=O)O)c(=O)c4cc(Cl)c(N5CCC[C@@H]5COc5ncccc5Cl)nc43)cn2)C1 [Example 532, (R)-6-chloro-7-(2-(((3-chloropyridin-2-yl)oxy)methyl)pyrrolidin-1-yl)-1-(6-(3-(dimethylamino)azetidin-1-yl)pyridin-3-yl)-4-oxo-1,4-dihydro-1,8-naphthyridine-3-carboxylic acid] | ≥ 6.00 |
| Cc1cc2c(=O)c(C(=O)O)cn(-c3ccc(N4CC(N(C)C)C4)nc3)c2cc1N1CCC[C@@H]1COc1ncccc1Cl [Example 533, (R)-7-(2-(((3-chloropyridin-2-yl)oxy)methyl)pyrrolidin-1-yl)-1-(6-(3-(dimethylamino)azetidin-1-yl)pyridin-3-yl)-6-methyl-4-oxo-1,4-dihydroquinoline-3-carboxylic acid] | ≥ 6.00 |
| O=C(O)c1cn(-c2ccc(F)c(O)c2)c2cc(N3CCC[C@@H]3COc3ccccn3)c(F)cc2c1=O [Example 534, (R)-6-fluoro-1-(4-fluoro-3-hydroxyphenyl)-4-oxo-7-(2-((pyridin-2-yloxy)methyl)pyrrolidin-1-yl)-1,4-dihydroquinoline-3-carboxylic acid] | ≥ 6.00 |
| O=C(O)c1cn(C2CCn3ccnc3C2)c2cc(N3CCC[C@@H]3COc3ncccc3Cl)c(Br)cc2c1=O (stereo partly drawn) [Example 536, 6-bromo-7-((R)-2-(((3-chloropyridin-2-yl)oxy)methyl)pyrrolidin-1-yl)-4-oxo-1-(5,6,7,8-tetrahydroimidazo [1,2-a]pyridin-7-yl)-1,4-dihydroquinoline-3-carboxylic acid] | ≥ 6.00 |
| CN(C)C1CN(c2ccc(-n3cc(C(=O)O)c(=O)c4cc(Br)c(N5CCC[C@@H]5COc5ncccc5Cl)cc43)cn2)C1 [Example 537, (R)-6-bromo-7-(2-(((3-chloropyridin-2-yl)oxy)methyl)pyrrolidin-1-yl)-1-(6-(3-(dimethylamino)azetidin-1-yl)pyridin-3-yl)-4-oxo-1,4-dihydroquinoline-3-carboxylic acid] | ≥ 6.00 |
| N#Cc1cc2c(=O)c(C(=O)O)cn(-c3cnccn3)c2cc1N1CCC[C@@H]1COc1ncccc1Cl [Example 538, (R)-7-(2-(((3-chloropyridin-2-yl)oxy)methyl)pyrrolidin-1-yl)-6-cyano-4-oxo-1-(pyrazin-2-yl)-1,4-dihydroquinoline-3-carboxylic acid] | ≥ 6.00 |
| COCCNc1ccc(-n2cc(C(=O)O)c(=O)c3cc(C#N)c(N4CCC[C@@H]4COc4ncccc4Cl)cc32)cn1 [Example 539, (R)-7-(2-(((3-chloropyridin-2-yl)oxy)methyl)pyrrolidin-1-yl)-6-cyano-1-(6-((2-methoxyethyl)amino)pyridin-3-yl)-4-oxo-1,4-dihydroquinoline-3-carboxylic acid] | ≥ 6.00 |

— US12662491B2 (Redona Therapeutics, Inc., priority 2020, dated 2026)
